The values that follow are results of earlier work, collected in patent publication US20250049818A1, “PRENATAL SUPPLEMENT COMPOSITIONS FOR INCREASING BREASTMILK MICRONUTRIENT LEVELS” (SOCIÉTÉ DES PRODUITS NESTLÉ S.A., priority 2021, published 2025).

Like-named read-outs stand apart in the source and are kept apart here.

For data set [1] the following is noted: daily supplementation during pregnancy only, zinc 30 mg.
The conditions of data set [2]: children of developing world, meta-analysis.
For data set [3] the following is noted: 10 mg/day for 120 days, Indian infants aged 6-35 months.
For data set [4] the following is noted: 5 mg/day, Indian infants small for gestational age.

`C=C1CC[C@H](O)C/C1=C/C=C1\CCC[C@]2(C)[C@@H]([C@H](C)CCCC(C)C)CC[C@@H]12` [vitamin D3, cholecalciferol]: the “mean vitamin D activity (VDA) of human milk” value is, setting by setting: (two months post-partum, 1,000 IU group) 43 IU/L; (two months post-partum, 2,000 IU group) 58 IU/L; (two weeks post-partum, 1,000 IU daily oral, 27-36 weeks of gestation) 51 IU/L; (two weeks post-partum, 2,000 IU daily oral, 27-36 weeks of gestation) 74 IU/L.

On to `[Zn]` [zinc], for which the “human milk zinc concentration” value in data set [1] (1 month postpartum) is on record as 49.3 (31.3-62.1) μmol/L; in data set [1] (6 months postpartum), 15.3 (11.8-27.2) μmol/L. Moreover, the reduced diarrhoea in data set [2] is 18%. Moreover, the “reduction in incidence of acute lower respiratory infections” value in data set [3] was 45%. In addition, the reduction in mortality in data set [4] is given as 68%.
